Source: article PMC12483148 (2025)
Values belong to the molecule of their own block, whether it stands above or below them.

Legend:
Assay in all cases: BLI, steady state fit
[1] = system: SAM-I riboswitch (3'-biotinylated) (RNA, riboswitch) GGCUUAUCAAGAGAGGUGGAGGGACUGGCCCGACGAAACCCGGCAACCAGAAAUGGUGCCAAUUCCUGCAGCGGAAACGUUGAAAGAUGAGCCG; conditions: 150 mM Na+, 2 mM Mg2+, 10 mM HEPES pH 7.4, 0.005% Surfactant P20, RNA immobilised
[2] = system: FMN riboswitch (3'-biotinylated) (RNA, riboswitch) GAUCUUCAGGGCGGGGUGAAAUUCCCCACCGGCGGUACAGCCCGCGAGCCCAGGAAACUGGGCAGACUUGGUGAAACUCCAAGGCCGACAGUAAAGUCUGGAUGAAAGAAGAUC; conditions: 150 mM Na+, 2 mM Mg2+, RNA immobilised
[3] = system: TPP riboswitch (3'-biotinylated) (RNA, riboswitch) CAGUACUCGGGGUGCCCUUCUGCGUGAAGGCUGAGAAAUACCCGUAUCACCUGAUCUGGAUAAUGCCAGCGUAGGGAAGUGCUG; conditions: 150 mM Na+, 2 mM Mg2+, 10 mM HEPES pH 7.4, 0.005% Surfactant P20, RNA immobilised
[4] = 10 mM HEPES pH 7.4, 0.005% Surfactant P20

KD,stead ([3]; single measurement, low signal-to-noise): 0.016 µM
Compound: Cc1ncc(C[n+]2csc(CCOP(=O)(O)OP(=O)(O)O)c2C)c(N)n1

KD,stead ([3]; b29 says 10 μM): 7.0 µM
Compound: Cc1ncc(C[n+]2csc(CCO)c2C)c(N)n1

KD,stead [1]: 0.17 µM
Compound: C[S+](CC[C@H](N)C(=O)O)C[C@H]1O[C@@H](n2cnc3c(N)ncnc32)[C@H](O)[C@@H]1O (stereo partly shown)

The remaining lines, values behind:

Compound: Nc1ncnc2c1ncn2[C@@H]1O[C@H](CSCC[C@H](N)C(=O)O)[C@@H](O)[C@H]1O
KD,stead ([1]; highest concentration 500 μM): 545 µM

Compound: Cc1cc2nc3c(=O)[nH]c(=O)nc-3n(C[C@H](O)[C@H](O)[C@H](O)COP(=O)(O)O)c2cc1C
KD,stead [2, 4]: 0.043 µM

Compound: O=c1cc(-c2cccs2)nc(C2CCCNC2)[nH]1 (stereo not shown)
KD,stead [2, 4]: 48 µM

Compound: O=C(NCc1ccc[nH]1)c1ccc2[nH]cnc2c1
KD,stead ([2]; HBS-P+ pH 7.4, 5% DMSO, apparent): 14 µM
